Data on 30 molecules can be found in patent US20030134859A1 (SANKYO COMPANY, LIMITED, priority 2000, published 2003).

The subject of experiment [1] is Mouse preadipocyte strain 3T3-L1. Kind of experiment: Inhibition of differentiation as an indication of acetic acid uptake. Format: cell-based. As to conditions: control (0.01% dimethylsulfoxide) = 100%; for activity at 0.1 µM: Mus musculus, read-out: Rate of Uptake (%) of [2-14C] acetic acid. The gist of the method: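 Differentiation is indexed by 1 hr [2-14C]acetic acid incorporation, measured by scintillation counting and given as uptake relative to 0.01% DMSO control (100%). Mouse 3T3-L1 preadipocytes, pre-grown 10 days, received 0.1 μM test substance throughout a 4-day insulin/IBMX/dexamethasone induction, followed by 2 days' maintenance culture.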

Experiment [2] concerns Rat white adipocytes. Kind of experiment: Stimulation of differentiation of the adipocytes (Oil Red O). The class given is cell-based. The conditions noted are these: Rattus norvegicus, Adipocyte, 120 h, 100 nM test compound; 5 days; Oil Red O ABS550; control = 100%, blank = 0%; Table 7; read-out: Rate of Differentiation (%). The gist of the method: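 Oil Red O lipid staining, absorbance 550 nm after DMSO extraction, quantified differentiation of rat white adipocytes exposed 5 days to compound (final 100 nM, 0.1% DMSO) in differentiation medium. Percent differentiation normalised between cell-free blank (0%) and DMSO control (100%).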

Where a name gives a salt, the structure may show the parent alone. Read-outs that look alike come from different tables or passages of the source.

For the molecule `N#Cc1cccc(NC(=O)c2cc([N+](=O)[O-])ccc2Cl)c1` [Example 21, N-(3-Cyanophenyl)-(2-chloro-5-nitrophenyl)carboxamide], the activity at 0.1 µM in experiment [1] (3T3-L1, 0.1 μM test substance) was determined as 70.3%.

Regarding `O=C(Nc1ccc([N+](=O)[O-])cc1)c1cc([N+](=O)[O-])ccc1Cl` [Example 23, N-(4-Nitrophenyl)-(2-chloro-5-nitrophenyl)carboxamide], the activity at 0.1 µM in experiment [1] (0.1 μM test substance) came to 59.5%.

On to `O=C(Nc1ccc([N+](=O)[O-])cn1)c1cc([N+](=O)[O-])ccc1Cl` [Example 24, N-(5-Nitropyridin-2-yl)-(2-chloro-5-nitrophenyl)carboxamide], for which the activity at 0.1 µM in experiment [1] (0.1 μM test substance) was 66.1%.

`O=C(Nc1cccc([N+](=O)[O-])c1)c1cc([N+](=O)[O-])ccc1Cl` [Example 25, N-(3-Nitrophenyl)-(2-chloro-5-nitrophenyl)carboxamide]: the activity at 0.1 µM in experiment [1] (0.1 μM test substance) is 66.3%.

In the case of `O=C(Nc1cccc(C(=O)N2CCCC2)c1)c1cc([N+](=O)[O-])ccc1Cl` [Example 31], the “Rate of Uptake (%) of [2-14C] acetic acid” value in experiment [1] (0.1 μM test substance) is listed as 85.9%.

Turning to `O=C(Nc1nc(-c2ccc3ccccc3c2)cs1)c1cc([N+](=O)[O-])ccc1Cl` [Example 42, N-[4-(2-Naphthyl)thiazol-2-yl)-(2-chloro-5-nitrophenyl)carboxamide], the activity at 0.1 µM in experiment [1] (3T3-L1, 0.1 μM test substance) is 60%.

On to `O=C(Nc1ccncc1)c1cc([N+](=O)[O-])ccc1Cl` [Example 49, N-(4-Pyridyl)-(2-chloro-5-nitrophenyl)carboxamide], for which the “Rate of Uptake (%) of [2-14C] acetic acid” value in experiment [1] (0.1 μM test substance) was found to be 69.6%.

Take `O=C(Nc1cnc2ccccc2c1)c1cc([N+](=O)[O-])ccc1Cl` [Example 55, N-(3-Quinolinyl)-(2-chloro-5-nitrophenyl)carboxamide]: the activity at 0.1 µM in experiment [1] (3T3-L1, 0.1 μM test substance) was determined as 55.4%.

Take `O=C(Nc1ccc(Cl)nc1)c1cc([N+](=O)[O-])ccc1Cl` [Example 62, N-(6-Chloropyridin-3-yl)-(2-chloro-5-nitrophenyl)carboxamide]: the activity at 0.1 µM in experiment [1] (3T3-L1, 0.1 μM test substance) came to 82.9%.

For `O=C(Nc1ccc(NC(=O)c2cc([N+](=O)[O-])ccc2Cl)nc1)c1cc([N+](=O)[O-])ccc1Cl` [Example 64, 2,5-bis(2-Chloro-5-nitrobenzoylamino)pyridine], in experiment [1] (0.1 μM test substance), the activity at 0.1 µM was found to be 96.2%.

With `O=C(Nc1nc2cc(Cl)ccc2o1)c1cc([N+](=O)[O-])ccc1Cl` [Example 75, N-(5-Chlorobenzoxazol-2-yl)-(2-chloro-5-nitrophenyl)carboxamide], in experiment [1] (3T3-L1, 0.1 μM test substance), the activity at 0.1 µM came to 80.1%.

With `O=C(Nc1ncc(Br)cn1)c1cc([N+](=O)[O-])ccc1Cl` [Example 77, N-(5-Bromopyrimidin-2-yl)-(2-chloro-5-nitrophenyl)carboxamide], in experiment [1] (3T3-L1, 0.1 μM test substance), the activity at 0.1 µM stood at 62.7%.

As for `Nc1ccc(-c2ccc(NC(=O)c3cc([N+](=O)[O-])ccc3Cl)cc2)cc1` [Example 88, N-[4-(4-Aminophenyl)phenyl]-(2-chloro-5-nitrophenyl)carboxamide mono-hydrochloride], in experiment [1] (3T3-L1, 0.1 μM test substance), the activity at 0.1 µM turned out to be 56.4%.

Consider `O=C(Nc1ccc(Cl)nn1)c1cc([N+](=O)[O-])ccc1Cl` [Example 89], for which the “Rate of Uptake (%) of [2-14C] acetic acid” value in experiment [1] (0.1 μM test substance) was 58.1%.

Turning to `Cc1c(C)c2c(c(C)c1O)C(=O)CC(C)(COc1ccc(NC(=O)c3cc([N+](=O)[O-])ccc3Cl)cc1)O2` (stereo not drawn) [Example 92, N-[4-(6-Hydroxy-2,5,7,8-tetramethyl-4-oxochroman-2-ylmethoxy)phenyl]-(2-chloro-5-nitrophenyl)carboxamide], in experiment [1] (3T3-L1, 0.1 μM test substance), the activity at 0.1 µM was 63%.

On to `CS(=O)(=O)Nc1ccc(-c2ccc(NC(=O)c3cc([N+](=O)[O-])ccc3Cl)cc2)cc1` [Example 93, N-[4-[4-(Methanesulfonylamino)phenyl]phenyl]-(2-chloro-5-nitrophenyl)carboxamide], for which the activity at 0.1 µM in experiment [1] (3T3-L1, 0.1 μM test substance) came out at 90.3%.

Take `Cc1ccc(S(=O)(=O)Nc2ccc(-c3ccc(NC(=O)c4cc([N+](=O)[O-])ccc4Cl)cc3)cc2)cc1` [Example 94, N-[4-[4-(4-Toluenesulfonylamino)phenyl]phenyl]-(2-chloro-5-nitrophenyl)carboxamide]: the activity at 0.1 µM in experiment [1] (3T3-L1, 0.1 μM test substance) was 80.4%.

On to `Cc1nnc(NS(=O)(=O)c2ccc(NC(=O)c3cc([N+](=O)[O-])ccc3Cl)cc2)s1` [Example 101, N-[4-[(5-Methyl-[1,3,4]thiadiazol-2-yl)aminosulfonyl]phenyl]-(2-chloro-5-nitrophenyl)carboxamide], for which, in experiment [1] (3T3-L1, 0.1 μM test substance), the activity at 0.1 µM is 78.3%.

With `CC(=O)Nc1ccc(-c2ccc(NC(=O)c3cc([N+](=O)[O-])ccc3Cl)cc2)cc1` [Example 118, N-[4-(4-Acetylaminophenyl)phenyl]-(2-chloro-5-nitrophenyl)carboxamide], the activity at 0.1 µM in experiment [1] (3T3-L1, 0.1 μM test substance) was found to be 79.6%.

For `O=C(Nc1ccc(-c2ccc(NC(=O)c3cc([N+](=O)[O-])ccc3Cl)cc2)cc1)c1ccccc1` [Example 120, N-[4-(4-Benzoylaminophenyl)phenyl]-(2-chloro-5-nitrophenyl)carboxamide], the activity at 0.1 µM in experiment [1] (3T3-L1, 0.1 μM test substance) is 64.6%.

In the case of `O=C(Nc1ccc(-c2ccc(NC(=O)c3cc([N+](=O)[O-])ccc3Cl)cc2)cc1)c1cccnc1` [Example 124, N-[4-[4-(Pyridin-3-ylcarbonylamino)phenyl]phenyl]-(2-chloro-5-nitrophenyl)carboxamide], the activity at 0.1 µM in experiment [1] (3T3-L1, 0.1 μM test substance) was 60%.

Turning to `O=C(Nc1ccc(NS(=O)(=O)c2ccccc2)cc1)c1cc([N+](=O)[O-])ccc1Cl` [Example 127, N-(4-Benzenesulfonylaminophenyl)-(2-chloro-5-nitrophenyl)carboxamide], in experiment [2], the activity at 0.1 µM is 112%.

With `O=C(Nc1cnccn1)c1cc([N+](=O)[O-])ccc1Cl` [Example 140, N-(Pyrazin-2-yl)-(2-chloro-5-nitrophenyl)carboxamide], the activity at 0.1 µM in experiment [1] (3T3-L1, 0.1 μM test substance) was found to be 72.4%.

Take `Cl.O=C(Nc1ccncc1)c1cc([N+](=O)[O-])ccc1Cl` [Example 146, N-(Pyridin-4-yl)-(2-chloro-5-nitrophenyl)carboxamide Hydrochloride]: in experiment [1] (3T3-L1, 0.1 μM test substance), the activity at 0.1 µM stood at 60%.

With `Cc1ccc(C(=O)Nc2nc3ccc(NC(=O)c4cc([N+](=O)[O-])ccc4Cl)cc3s2)cc1` [Example 149, N-[2-(4-Methylbenzoylamino)benzothiazol-6-yl]-(2-chloro-5-nitrophenyl)carboxamide], the activity at 0.1 µM in experiment [1] (3T3-L1, 0.1 μM test substance) stood at 76.5%.

As for `O=C(Nc1ccc(C(=O)N2CCCCC2)cc1)c1cc([N+](=O)[O-])ccc1Cl` [Example 159, N-[4-(Piperidylcarbonyl)phenyl]-(2-chloro-5-nitrophenyl)carboxamide], the activity at 0.1 µM in experiment [2] is 123%.

Regarding `CC(C)(C)c1cc(NS(=O)(=O)c2cccc(NC(=O)c3cc([N+](=O)[O-])ccc3Cl)c2)cc(C(C)(C)C)c1O` [Example 161, N-[3-[(3,5-di-tert-Butyl-4-hydroxyphenyl)aminosulfonyl]phenyl]-(2-chloro-5-nitrophenyl)carboxamide], the activity at 0.1 µM in experiment [2] came to 113%.

In the case of `CC(C)(C)c1cc(NS(=O)(=O)c2ccc(NC(=O)c3cc([N+](=O)[O-])ccc3Cl)cc2)cc(C(C)(C)C)c1O` [Example 175, N-[4-[(3,5-di-tert-Butyl-4-hydroxyphenyl)aminosulfonyl]phenyl]-(2-chloro-5-nitrophenyl)carboxamide], the activity at 0.1 µM in experiment [2] was determined as 114%.

Turning to `CCCN(CCC)c1ccc(NC(=O)c2cc([N+](=O)[O-])ccc2Cl)cc1` [Example 182, N-[4-(N,N-Dipropylamino)phenyl]-(2-chloro-5-nitrophenyl)carboxamide], the activity at 0.1 µM in experiment [2] was determined as 122%.

For “N-[4-(4-Methylbenzoylamino)phenyl]phenyl]-(2-chloro-5-nitrophenyl)carboxamide [Example 122]”, in experiment [1] (0.1 μM test substance), the “Rate of Uptake (%) of [2-14C] acetic acid” value came out at 75.4%.
